In patent US8637040B2, “Genus-wide chlamydial peptide vaccine antigens” (priority 2008, dated 2014):

Legend:
chlamydia = experiment: Gross anatomical observation of genital tract inflammation after challenge; format: in vivo, mouse; conditions: female mice primed and boosted twice SC, necropsy ~28 days post-challenge, vs adjuvant-only control
Source text: FIG. 15A-15C is a set of three photographs showing the gross morphology of tissues of the female reproductive tract of mice immunized and then challenged 28 days earlier with Pep4 or Pep7. Mice had been primed and boosted twice SC, as above, and were challenged with chlamydia 2 weeks later, rechallenged and sacrificed 4 weeks after re-challenge. Inflamed genital tracts outlined in dashed lines.
Genital tracts were exposed at necropsy ˜28 days post-challenge to score inflammatory changes (and then removed for histological analysis). […] Representative examples for recipients of Peptides 4 and 7 are shown in the center and right panels, respectively. Yellow arrows point to uterine horns (which are further demarcated with dashed lines). It is evident that the peptide immunogens reduced the gross pathology of the genital tract even weeks after challenge. This has been reproduced in a second experiment in which control mice received an irrelevant peptide instead of Peptides 4 or 7. Based on what is known in the art from other contexts, the histopathological results are expected to be consistent with these gross anatomical observations.

[1] = Encapsulation of Pep4 in PLGA nanoparticles and peptide release; format: physicochemical; conditions: carbonate buffer, ELISA with anti-Pep4 antiserum standard curve
Description: One preferred approach to the preparation of peptide-loaded polylactide (PLA) or PLGA micro- and/or nanoparticles follows. Biodegradable PLA or PLGA nanoparticles (NPs) loaded with the selected peptides is prepared using a modified version of the double emulsion solvent evaporation technique, in a procedure similar to that previously described by Li and co-workers (139). […] Briefly, an aqueous solution of the peptide is emulsified in dichloromethane containing the PLGA (using an ultrasonic homogenizer), thus forming the primary water-in-oil (w/o) emulsion. The prepared w/o emulsion is then emulsified in a second aqueous phase containing polyvinyl alcohol (PVA) as stabilizer, thus resulting in the multiple w/o/w emulsion. The double emulsion is later added into a large volume of aqueous solution of PVA, and stirred for several hours to evaporate the organic solvent. The resulting nanoparticles are then collected by centrifugation and washed (removing PVA) several times before lyophilization to remove the remaining water (139,140). The powder is kept at −80° C. until use. […] Optimal peptide loading concentrations for protective immunization are determined empirically, e.g., by comparing orally delivered peptide-NP to free peptide delivered subcutaneously. […]

[2] = system: C. trachomatis-infected HEp2 cells; experiment: Indirect immunofluorescence of immune sera on infected HEp2 cells; format: cell-based, human; conditions: sera 1:40 dilution, FITC anti-mouse IgG
Source text: Micrographs of HEp2 cells infected with C. trachomatis are immunostained (by indirect immunofluorescence) with sera (1:40 dilution) from mice immunized with the designated peptides (A-E) or soluble. mAb2 (F). FITC anti-mouse IgG was the detecting antibody. Arrows point to distinct differences in targets of the immune sera. Antibodies in panels A-C recognized EB and RB and possibly some matrix material in the inclusion. Antibodies in D-E also recognized targets in the inclusion matrix and inclusion membrane, similar to immune sera raised against the older vaccine candidate, the entire mAb2 (F). 40× original magnification. Samples are counterstained with Evans blue.
HEp2 cells were infected with C. trachomatis were subjected to cytocentrifugation to deposit them onto microscope slides. After fixation (MeOH) they were stained with sera (1:40 dilution) from mice immunized with the indicated peptides or with soluble mAb2. The binding of the antibodies to the cells was detected using a fluorescent (FITC-labeled) secondary Ab, an anti-mouse IgG. Results appear in FIGS. 9A-F.

AFPQFRSATLLL [Pep4]
gross inflammation / pathology of the genital tract (chlamydia): not nearly as inflamed | release of peptide [1]: about 3.8 μg/ml/day | structures recognized by immune sera in infected cells [2]: recognized EB and metabolically active, non-infectious reticulate bodies (RB)
